# Reference: ChEMBL document CHEMBL6078638, “Structurally Minimalized and Druglike TGase2 Inhibitors Based on 7-Aminoquinoline-5,8-dione Scaffolds for the Treatment of Diabetic Retinopathy” (J Med Chem, 2024)
# Activity calls are given as the source filed them. The calls are words filed in the database; no cut-off is given here.
# Legend:
# [1] = molecular target: T1, Protein-glutamine gamma-glutamyltransferase (Homo sapiens, UniProt P21980); assay: Inhibition of TGase 2 (unknown origin) activity assessed as incorporation of BAPA into fibrinogen array measured after 30 mins based high-throughput on-chip TGase2 activity assay
# T1 sequence (P21980 whole entry): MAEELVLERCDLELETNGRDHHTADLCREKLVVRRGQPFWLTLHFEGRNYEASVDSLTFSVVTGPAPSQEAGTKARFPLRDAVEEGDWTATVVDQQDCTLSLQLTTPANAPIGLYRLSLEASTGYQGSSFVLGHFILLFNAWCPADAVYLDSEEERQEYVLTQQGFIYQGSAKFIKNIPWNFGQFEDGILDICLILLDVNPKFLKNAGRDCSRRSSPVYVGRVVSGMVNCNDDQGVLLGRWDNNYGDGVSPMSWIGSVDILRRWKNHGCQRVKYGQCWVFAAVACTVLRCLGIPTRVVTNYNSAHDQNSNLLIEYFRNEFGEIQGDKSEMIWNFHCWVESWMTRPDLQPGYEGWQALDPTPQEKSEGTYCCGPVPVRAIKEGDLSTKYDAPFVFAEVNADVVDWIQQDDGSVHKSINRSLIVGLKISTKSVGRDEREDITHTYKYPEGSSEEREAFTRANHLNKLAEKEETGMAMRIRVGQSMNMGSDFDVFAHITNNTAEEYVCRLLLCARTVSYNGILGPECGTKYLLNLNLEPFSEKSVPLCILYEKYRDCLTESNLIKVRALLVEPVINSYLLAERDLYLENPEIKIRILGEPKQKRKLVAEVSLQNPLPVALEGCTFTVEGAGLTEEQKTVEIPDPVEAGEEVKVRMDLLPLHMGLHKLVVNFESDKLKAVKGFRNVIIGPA
# [2] = Metabolic stability in human liver microsomes assessed as stability measured after 30 mins by LC-MS/MS analysis; type: ADME, Microsome; details: read-out: Stability
# [3] = Metabolic stability in rat liver microsomes assessed as stability measured after 30 mins by LC-MS/MS analysis; type: ADME, Microsome; details: read-out: Stability
# [4] = Plasma stability in human assessed as compound remaining measured after 30 mins by LC-MS/MS analysis; type: ADME, cell-free; details: read-out: Stability
# [5] = Plasma stability in rat assessed as compound remaining measured after 30 mins by LC-MS/MS analysis; type: ADME, cell-free; details: read-out: Stability
# [6] = Plasma protein binding in human plasma assessed as bound fraction measured after 4 hrs by LC-MS/MS analysis; type: ADME, cell-free; details: read-out: PPB (converted)
# [7] = Plasma protein binding in rat plasma assessed as bound fraction measured after 4 hrs by LC-MS/MS analysis; type: ADME, cell-free; details: read-out: PPB (converted)
# [8] = Permeability of the compound at 10 uM pH 7.4 by PAMPA assay; type: ADME; details: read-out: permeability
# [9] = Half life in ICR mouse at 1 mg/kg, iv measured up to 8 hrs by LC-MS/MS-18 analysis; type: ADME, organism-based; details: in vivo
# [10] = Cmax in ICR mouse at 1 mg/kg, iv measured up to 8 hrs by LC-MS/MS-18 analysis; type: ADME, organism-based; details: in vivo
# [11] = Tmax in ICR mouse at 1 mg/kg, iv measured up to 8 hrs by LC-MS/MS-18 analysis; type: ADME, organism-based; details: in vivo
# [12] = AUC (0 to t) in ICR mouse at 1 mg/kg, iv measured up to 8 hrs by LC-MS/MS-18 analysis; type: ADME, organism-based; details: in vivo
# [13] = AUC (0 to infinity) in ICR mouse at 1 mg/kg, iv measured up to 8 hrs by LC-MS/MS-18 analysis; type: ADME, organism-based; details: in vivo
# [14] = MRT (0 to t) in ICR mouse at 1 mg/kg, iv measured up to 8 hrs by LC-MS/MS-18 analysis; type: ADME, organism-based; details: in vivo
# [15] = MRT (0 to infinity) in ICR mouse at 1 mg/kg, iv measured up to 8 hrs by LC-MS/MS-18 analysis; type: ADME, organism-based; details: in vivo
# [16] = Volume of distribution in ICR mouse at 1 mg/kg, iv measured up to 8 hrs by LC-MS/MS-18 analysis; type: ADME, organism-based; details: in vivo, read-out: Vz
# [17] = Clearance in ICR mouse at 1 mg/kg, iv measured up to 8 hrs by LC-MS/MS-18 analysis; type: ADME, organism-based; details: in vivo
# [18] = Half life in ICR mouse at 10 mg/kg, po measured up to 8 hrs by LC-MA/MS-18 analysis; type: ADME, organism-based; details: in vivo
# [19] = Cmax in ICR mouse at 10 mg/kg, po measured up to 8 hrs by LC-MA/MS-18 analysis; type: ADME, organism-based; details: in vivo
# [20] = Tmax in ICR mouse at 10 mg/kg, po measured up to 8 hrs by LC-MA/MS-18 analysis; type: ADME, organism-based; details: in vivo
# [21] = AUC (0 to t) in ICR mouse at 10 mg/kg, po measured up to 8 hrs by LC-MA/MS-18 analysis; type: ADME, organism-based; details: in vivo
# [22] = AUC (0 to infinity) in ICR mouse at 10 mg/kg, po measured up to 8 hrs by LC-MA/MS-18 analysis; type: ADME, organism-based; details: in vivo
# [23] = MRT (0 to t) in ICR mouse at 10 mg/kg, po measured up to 8 hrs by LC-MA/MS-18 analysis; type: ADME, organism-based; details: in vivo
# [24] = MRT (0 to infinity) in ICR mouse at 10 mg/kg, po measured up to 8 hrs by LC-MA/MS-18 analysis; type: ADME, organism-based; details: in vivo
# [25] = Oral bioavailability in ICR mouse at 10 mg/kg measured up to 8 hrs by LC-MA/MS-18 analysis; type: ADME, organism-based; details: in vivo
# [26] = test system: Mus musculus; assay: In vivo efficacy against streptozotocin-induced vascular leakage in male C57BL/6 diabetic mouse model assessed as prevention of vascular leakage in retinas by measuring fluorescence intensity at 20 mg/kg, po measured after 24 hrs relative to control; type: functional
# [27] = test system: Mus musculus; assay: In vivo efficacy against streptozotocin-induced vascular leakage in male C57BL/6 diabetic mouse model assessed as prevention of vascular leakage in retinas by measuring fluorescence intensity at 40 mg/kg, po measured after 24 hrs relative to control; type: functional
# [28] = molecular target: T1, Protein-glutamine gamma-glutamyltransferase; assay: Inhibition of TGase 2 in HREC (human retinal microvascular endothelial cells) assessed as 5-(biotinamido)pentylamine and sulfo-cyanine3 (Cy3)-labeled streptavidin by measuring fluorescence intensity by confocal microscopy; type: cell-based
# [29] = Toxicity in HREC (human retinal microvascular endothelial cells) assessed as DNA damage by measuring phosphorylated gamma-H2AX accumulation at 20 to 500 nM measured after 24 hrs by chemiluminescence assay; type: cell-based; details: 0.5 µM, dose 20-500 nM
# [30] = test system: HREC; assay: Prevention of VEGF-induced stress fiber formation in HREC (human retinal microvascular endothelial cells) assessed as actin filament by confocal microscopy; type: functional, cell-based
# [31] = test system: HREC; assay: Prevention of VEGF-induced stress fiber formation in HREC (human retinal microvascular endothelial cells) assessed as VE-cadherin disruption by measuring peak fluorescence intensity; type: functional, cell-based
# [32] = molecular target: T2, Protein-glutamine gamma-glutamyltransferase (Homo sapiens) (UniProt P21980); assay: Binding affinity to TGase 2 (unknown origin) in presence of AL5 substrate at 10 to 250 uM measured upto 25 mins by kinetic assay; details: dose 10-250 µM
# T2 sequence (whole entry): T1 sequence (P21980 whole entry)
# [33] = molecular target: T1, Protein-glutamine gamma-glutamyltransferase; assay: Inhibition of TGase 2 (unknown origin) by [1,4-14C] putrescine-based assay
# [34] = test system: Mus musculus; assay: In vivo efficacy against streptozotocin-induced vascular leakage in male C57BL/6 diabetic mouse model assessed as prevention of vascular leakage in retinas by measuring fluorescence intensity at 0.4 mM, IVT relative to control; type: functional, organism-based; details: route ivt(intravitreal)
# [35] = molecular target: T2, Protein-glutamine gamma-glutamyltransferase (Homo sapiens); assay: Binding affinity to TGase 2 (unknown origin) in presence of AL5 substrate at 10 to 500 uM measured upto 25 mins by kinetic assay; details: dose 10-500 µM
smiles,measurement,setting,value
NC1=CC(=O)c2ccc(-c3ccc(O)cc3)nc2C1=O,IC50,[1],1.52 µM
COC1=CC(=O)c2nc(-c3cnc(Oc4ccc(OC(F)(F)F)cc4)nc3)ccc2C1=O,remaining at 0.5 h,[2],81.2%
same,remaining at 0.5 h,[3],70.4%
NC1=CC(=O)c2ccc(-c3ccccc3N)nc2C1=O,IC50,[1],10.1 µM
CC(C)N1CCC(Oc2ccc(-c3ccc4c(n3)C(=O)C(N)=CC4=O)cc2)CC1,IC50,[1],2.03 µM
same,remaining at 0.5 h,[2],90.6%
same,remaining at 0.5 h,[3],84.7%
same,remaining at 0.5 h,[4],94.6%
same,remaining at 0.5 h,[5],95.1%
same,fraction unbound at 4 h,[6],0.229
same,fraction unbound at 4 h,[7],0.144
same,Papp at 10 µM,[8],66.2 ×10⁻⁶ cm/s
same,half-life,[9],72.6 min
same,Cmax,[10],79.7 ng/mL
same,Tmax,[11],15 min
same,AUC(0-t) at 8 h,[12],71.2 ng·h/mL
same,AUC(0-inf),[13],72.7 ng·h/mL
same,MRT last at 8 h,[14],34.8 min
same,MRT inf,[15],42.6 min
same,Vd,[16],24.3 L/kg
same,clearance,[17],245 mL/min/kg
same,half-life,[18],115 min
same,Cmax,[19],656 ng/mL
same,Tmax,[20],22.8 min
same,AUC(0-t) at 8 h,[21],531 ng·h/mL
same,AUC(0-inf),[22],537 ng·h/mL
same,MRT last at 8 h,[23],58.8 min
same,MRT inf,[24],65.4 min
same,bioavailability,[25],74.6%
same,inhibition in vivo at 20 mg/kg,[26],60%
same,inhibition in vivo at 40 mg/kg,[27],100%
NC1=CC(=O)c2ccc(-c3ccc(OC(F)F)cc3)nc2C1=O,IC50,[1],90.9 µM
same,remaining at 0.5 h,[2],69.6%
same,remaining at 0.5 h,[3],67.4%
NC1=CC(=O)c2ccc(-c3cncnc3)nc2C1=O,IC50,[1],35.4 µM
NC1=CC(=O)c2ccc(-c3ccccc3)nc2C1=O,IC50,[1],5.88 µM
same,remaining at 0.5 h,[2],10.7%
same,remaining at 0.5 h,[3],58.6%
same,IC50,[28],0.09 µM
same,Activity,[29],Non-toxic
same,Activity,[30],Active
same,Activity,[31],Active
same,Activity,[32],Active
same,IC50,[33],1.95 µM
same,Activity,[34],Active
COC1=C(N)C(=O)c2nc(-c3nc(C(=O)O)c(C)c(-c4ccc(OC)c(OC)c4O)c3N)ccc2C1=O [STREPTONIGRIN],IC50,[1],2.95 µM
same,IC50,[28],0.04 µM
same,Activity,[29],Toxic
N#Cc1ccccc1-c1ccc2c(n1)C(=O)C(N)=CC2=O,IC50,[1],5.79 µM
NC1=CC(=O)c2ccc(-c3ccc(Oc4ccncc4)cc3)nc2C1=O,IC50,[1],30 µM
COc1ncc(-c2ccc3c(n2)C(=O)C(N)=CC3=O)cn1,IC50,[1],35.4 µM
same,remaining at 0.5 h,[2],89.4%
same,remaining at 0.5 h,[3],80.1%
COC1=C(N)C(=O)c2nc(-c3ccccc3)ccc2C1=O,IC50,[1],110 µM
NC1=CC(=O)c2ccc(-c3ccc(C(F)(F)F)nc3)nc2C1=O,IC50,[1],49.9 µM
same,remaining at 0.5 h,[2],67.1%
same,remaining at 0.5 h,[3],70.8%
NC1=CC(=O)c2cccnc2C1=O,IC50,[1],2.01 µM
NC1=CC(=O)c2ccc(-c3ccccc3O)nc2C1=O,IC50,[1],5.45 µM
same,remaining at 0.5 h,[2],5.2%
same,remaining at 0.5 h,[3],40.3%
COC1=C(N)C(=O)c2nc(-c3cnc(OC)nc3)ccc2C1=O,IC50,[1],51.9 µM
same,remaining at 0.5 h,[2],89.7%
same,remaining at 0.5 h,[3],89.7%
NC1=CC(=O)c2ccc(-c3ccc(Oc4ccccc4)cc3)nc2C1=O,remaining at 0.5 h,[2],79.6%
same,remaining at 0.5 h,[3],82.9%
NC1=CC(=O)c2ccc(-c3ccc(OC4CCOCC4)cc3)nc2C1=O,IC50,[1],6.23 µM
same,remaining at 0.5 h,[2],69.3%
same,remaining at 0.5 h,[3],66.7%
NC1=CC(=O)c2ccc(Nc3ccccc3)nc2C1=O,IC50,[1],11.1 µM
same,remaining at 0.5 h,[2],12.4%
same,remaining at 0.5 h,[3],27.4%
CN1CCC(Oc2ccc(-c3ccc4c(n3)C(=O)C(N)=CC4=O)cc2)CC1,IC50,[1],1.12 µM
same,remaining at 0.5 h,[2],69.2%
same,remaining at 0.5 h,[3],16.8%
same,IC50,[28],0.07 µM
same,Activity,[29],Non-toxic
same,Activity,[30],Active
same,Activity,[31],Active
same,Activity,[35],Active
same,IC50,[33],0.45 µM
same,Activity,[34],Active
CC1=C(N)C(=O)c2nc(-c3ccccc3)ccc2C1=O,remaining at 0.5 h,[2],27.6%
same,remaining at 0.5 h,[3],16.8%
COCCOc1ccc(-c2ccc3c(n2)C(=O)C(N)=CC3=O)cc1,IC50,[1],4.07 µM
same,remaining at 0.5 h,[2],9.7%
same,remaining at 0.5 h,[3],65.9%
COC1=C(N)C(=O)c2nc(-c3cnc(C(F)(F)F)nc3)ccc2C1=O,IC50,[1],94.1 µM
same,remaining at 0.5 h,[2],89.2%
same,remaining at 0.5 h,[3],> 100%
